Assays:
[1] = target: T1, Rat Androgen Receptors (Rat AR) (Rattus norvegicus, UniProt P15207); test: Test for competitive binding to rat androgen receptors (Test Example 1); conditions: 100×(IC50 of bicalutamide)/(IC50 of compound); bicalutamide taken as 100; 3H-testosterone, rat prostate AR fraction
T1 construct: from tissue; host or cells: prostate of orchiectomized male SD rats (100,000 x g supernatant of the homogenate)
T1 sequence (P15207 1-902): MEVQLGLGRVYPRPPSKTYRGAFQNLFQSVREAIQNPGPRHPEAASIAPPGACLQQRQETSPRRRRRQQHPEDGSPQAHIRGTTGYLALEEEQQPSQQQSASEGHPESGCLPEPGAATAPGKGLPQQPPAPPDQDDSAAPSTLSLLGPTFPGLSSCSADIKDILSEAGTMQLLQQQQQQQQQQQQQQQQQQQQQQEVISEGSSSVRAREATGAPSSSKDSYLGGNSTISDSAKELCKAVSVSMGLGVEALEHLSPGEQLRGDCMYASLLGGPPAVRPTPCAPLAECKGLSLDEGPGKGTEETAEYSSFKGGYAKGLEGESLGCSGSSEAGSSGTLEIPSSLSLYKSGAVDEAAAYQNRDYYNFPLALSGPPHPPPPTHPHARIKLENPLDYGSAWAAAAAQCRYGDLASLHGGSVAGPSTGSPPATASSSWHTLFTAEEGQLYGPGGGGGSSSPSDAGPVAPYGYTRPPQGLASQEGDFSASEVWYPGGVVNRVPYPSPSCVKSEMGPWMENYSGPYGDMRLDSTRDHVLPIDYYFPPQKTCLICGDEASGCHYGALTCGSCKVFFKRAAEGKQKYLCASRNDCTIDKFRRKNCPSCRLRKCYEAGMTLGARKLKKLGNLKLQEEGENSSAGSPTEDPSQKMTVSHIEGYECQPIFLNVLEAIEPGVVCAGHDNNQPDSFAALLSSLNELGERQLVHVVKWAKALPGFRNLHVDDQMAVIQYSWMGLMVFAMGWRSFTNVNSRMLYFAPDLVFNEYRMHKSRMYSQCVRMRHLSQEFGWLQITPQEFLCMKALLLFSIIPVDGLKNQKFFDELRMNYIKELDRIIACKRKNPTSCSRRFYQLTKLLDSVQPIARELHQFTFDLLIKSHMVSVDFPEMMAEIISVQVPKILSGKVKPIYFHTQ
Procedure: Test for Competitive Binding to Rat Androgen Receptors (Rat AR)
Preparation of rat AR fraction: Prostates were harvested into ice-cooled ET buffer (10 mM Tris, 1 mM EDTA, 5 mM DTT, 10 mM sodium molybdate, pH 7.4) 3 days after orchiectomy in 11-week-old male SD rats. The prostate was finely cut, and ET buffer was added, whereafter the mixture was homogenized using a homogenizer. The homogenate was ultracentrifuged (100,000×g, 60 min, 4° C.), and the supernatant was used as a rat AR fraction (hereinafter referred to as ARF).
Binding test: ^3H-testosterone (hereinafter referred to as ^3H-T) was diluted with ET buffer. Dihydrotestosterone (DHT) was prepared so as to have a concentration (final concentration 1 μM) 400 times the maximum concentration of ^3H-T (2.5 nM). The ^3H-T solution was added to a 1.5 ml tube containing DHT, no DHT, or various concentrations of a test compound. Further, 200 μg ARF was added to adjust the final volume to 100 μl. The mixture was incubated for 2 hours at 4° C., and then 300 μl of a 0.05% dextran T70-1.0% activated carbon solution was added. The mixture was further incubated for 15 minutes in ice to remove the free ^3H-T by adsorption. […] The mixture was stirred, allowed to stand, and measured for ^3H radioactivity with a liquid scintillation counter.

[2] = test system: Orchiectomized (ORX) Rats; test: Effect of oral administration on prostate, femoral bone mineral density and levator ani muscle in ORX rats (Test Example 4); type: in vivo, rat; conditions: 30 mg/kg orally twice daily, 4 weeks
Procedure: Effect of the Oral Administration on Prostate, Femoral Bone Mineral Density, and Levator Ani Muscle in Orchiectomized (ORX) Rats
Testes were removed from 12-week-old male SD rats. From the following day onward, the compound of Example 16 (30 mg/5 ml/kg) was orally administered twice daily for 4 consecutive weeks on 7 days per week. The test compound was suspended in a 0.5% methylcellulose solution as a solvent, and used in the test. In an ORX control group, a 0.5% methylcellulose solution (5 ml/kg) was administered. The rats, which had not been orchiectomized, but had been subjected to laparotomy, followed by closure of the abdomen, were used as a sham control group. On the next day after final administration, the wet weights of the ventral prostate and the levator ani muscle were measured, and the bone mineral density of the right femur was measured by the DEXA method (dual energy X-ray absorptiometry), to evaluate the in vivo effect of the compound of Example 16.

[3] = test system: Orchiectomized (ORX) Rats; test: Effect on prostate, femoral bone mineral density and levator ani muscle in ORX rats, subcutaneous (Test Example 3); type: in vivo, rat; conditions: 4 weeks; for Femoral bone mineral density / Levator ani muscle weight / Prostate weight: 5 days per week, Mean ± SD; for Femoral bone mineral density: DEXA, right femur
Excerpt: (§1) Effect on Prostate, Femoral Bone Mineral Density, and Levator Ani Muscle in Orchiectomized (ORX) Rats
(§2) Testes were removed from 12-week-old male SD rats. […] The compounds of the Examples and the DHT were each dissolved in dimethyl sulfoxide, and then diluted 10-fold with olive oil. The resulting solution of each concentration was used in the test. In an ORX control group, dimethyl sulfoxide diluted 10-fold with olive oil was used for the test.

[4] = test system: Orchiectomized (ORX) Rats; test: Effect on prostate, femoral bone mineral density and levator ani muscle in ORX rats, subcutaneous (Test Example 2); type: in vivo, rat; conditions: 4 weeks; for Femoral bone mineral density / Levator ani muscle weight / Prostate weight: 5 days per week, Mean ± SD; for Femoral bone mineral density: DEXA, right femur
Excerpt: as §1
as §2, with “compound” for “compounds”, “Example” for “Examples”

## CC(C)(CNC(=O)c1ccc(NC=O)cc1)[C@H]1Nc2ccc(C#N)cc2[C@H]2CCC[C@H]21 (relative stereo) [Example 16, (3aR*,4S*,9bS*)-N-[2-(8-Cyano-2,3,3a,4,5,9b-hexahydro-1H-cyclopenta[c]quinolin-4-yl)-2-methylpropyl]-4-formylaminobenzamide]
[1]
  RBA (relative binding inhibition rate, Relative Binding Affinity): 406
[2]
  weight of the prostate relative to that in the sham control group: about 90%
[2]; 7 days per week, DEXA, right femur, Mean ± SD
  Femoral bone mineral density: 136 ± 10 mg/cm^2
[2]; 7 days per week, Mean ± SD
  Levator ani muscle weight: 60 ± 6 mg/100 g body weight
  Prostate weight: 90 ± 24 mg/100 g body weight

## CC(C)(CNC(=O)c1ccc(OCC(F)(F)F)cc1)[C@H]1Nc2ccc(C#N)cc2[C@H]2CCC[C@H]21 (relative stereo) [Example 8, (3aR*,4S*,9bS*)-N-[2-(8-Cyano-2,3,3a,4,5,9b-hexahydro-1H-cyclopenta[c]quinolin-4-yl)-2-methylpropyl]-4-(2,2,2-trifluoroethoxy)benzamide]
[3]; 30 mg/kg s.c. once daily
  Femoral bone mineral density: 136 ± 3 mg/cm^2
  Levator ani muscle weight: 58 ± 6 mg/100 g body weight
  Prostate weight: 62 ± 10 mg/100 g body weight
[3]; 30 mg/kg s.c.
  weight of the prostate relative to that in the sham control group: about 50%

## CC(=O)Nc1ccc(C(=O)NCC(C)(C)[C@H]2Nc3ccc(C#N)cc3[C@H]3CCC[C@H]32)cn1 (relative stereo) [Example 23, (3aR*,4S*,9bS*)-6-Acetamido-N-[2-(8-cyano-2,3,3a,4,5,9b-hexahydro-1H-cyclopenta[c]quinolin-4-yl)-2-methylpropyl]nicotinamide]
[1]
  RBA (relative binding inhibition rate, Relative Binding Affinity): 420
[3]; 30 mg/kg s.c. once daily
  Femoral bone mineral density: 137 ± 5 mg/cm^2
  Levator ani muscle weight: 72 ± 6 mg/100 g body weight
  Prostate weight: 111 ± 14 mg/100 g body weight
[3]; 30 mg/kg s.c.
  weight of the prostate relative to that in the sham control group: about 90%

## C[C@]12CCC(=O)C[C@@H]1CC[C@@H]1[C@@H]2CC[C@]2(C)[C@@H](O)CC[C@@H]12 [DHT, dihydrotestosterone, reference compound]
[4]; 10 mg/kg s.c. once daily
  Femoral bone mineral density: 138 ± 6 mg/cm^2
  Levator ani muscle weight: 74 ± 6 mg/100 g body weight
  Prostate weight: 166 ± 33 mg/100 g body weight
[4]; 10 mg/kg s.c.
  weight of the prostate relative to that in the sham control group: about 175%
[3]; 10 mg/kg s.c. once daily
  Femoral bone mineral density: 138 ± 6 mg/cm^2
  Levator ani muscle weight: 85 ± 9 mg/100 g body weight
  Prostate weight: 162 ± 27 mg/100 g body weight
[3]; 10 mg/kg s.c.
  weight of the prostate relative to that in the sham control group: about 130%

## CC(C)(CNC(=O)c1ccc(OC(F)(F)F)cc1)[C@H]1Nc2ccc(C#N)cc2[C@H]2CCC[C@H]21 (relative stereo) [Example 1, (3aR*,4S*,9bS*)-N-[2-(8-cyano-2,3,3a,4,5,9b-hexahydro-1H-cyclopenta[c]quinolin-4-yl)-2-methylpropyl]-4-trifluoromethoxybenzamide]
[4]; 30 mg/kg s.c. once daily
  Femoral bone mineral density: 137 ± 7 mg/cm^2
  Levator ani muscle weight: 60 ± 6 mg/100 g body weight
  Prostate weight: 70 ± 13 mg/100 g body weight
[4]; 30 mg/kg s.c.
  weight of the prostate relative to that in the sham control group: about 74%
